From patent US7709498B2, “Quinoline derivatives as antibacterial agents” (Janssen Pharmaceutica N.V., priority 2005, dated 2010)
Converted amounts (≈) assume the structure as drawn.

Legend:
Assay type in all cases: cell-based
[1] = tested on: Pseudomonas aeruginosa (ATCC27853); assay: Microtitre plate assay, IC90 determination, PAE 27853; settings: 90% inhibitory concentration for bacterial growth, 37° C., resazurin fluorescence
Description: (§1) The bacteria used in this study were grown overnight in flasks containing 100 ml Mueller-Hinton Broth (Becton Dickinson—cat. no. 275730) in sterile de-ionized water, with shaking, at 37° C. Stocks (0.5 ml/tube) were stored at −70° C. until use. Bacteria titrations were performed in microtiter plates to detect the TCID50, in which the TCID50 represents the dilution that gives rise to bacterial growth in 50% of inoculated cultures.
(§2) In general, an inoculum level of approximately 100 TCID50 was used for susceptibility testing.
(§3) Flat-bottom, sterile 96-well plastic microtiter plates were filled with 180 μl of sterile deionized water, supplemented with 0.25% BSA. Subsequently, stock solutions (7.8× final test concentration) of compounds were added in 45 μl volumes in column 2. Serial five-fold dilutions (45 μl in 180 μl) were made directly in the microtiter plates from column 2 to reach column 11. Untreated control samples with (column 1) and without (column 12) inoculum were included in each microtiter plate. Depending on the bacteria type, approximately 10 to 60 CFU per well of bacteria inoculum (100 TCID50), in a volume of 100 μl in 2.8× Mueller-Hinton broth medium, was added to the rows A to H, except column 12. The same volume of broth medium without inoculum was added to column 12 in row A to H. The cultures were incubated at 37° C. for 24 hours under a normal atmosphere (incubator with open air valve and continuous ventilation). At the end of incubation, one day after inoculation, the bacterial growth was quantitated fluorometrically. Therefore resazurin (0.6 mg/ml) was added in a volume of 20 μl to all wells 3 hours after inoculation, and the plates were re-incubated overnight. A change in colour from blue to pink indicated the growth of bacteria. The fluorescence was read in a computer-controlled fluorometer (Cytofluor Biosearch) at an excitation wavelength of 530 nm and an emission wavelength of 590 nm. The % growth inhibition achieved by the compounds was calculated according to standard methods. The IC90 (expressed in μg/ml) was defined as the 90% inhibitory concentration for bacterial growth.
(§4) BSU 3639 means Bacillus subtilis (ATCC43639); ECO 25922 means Escherichia coli (ATCC25922); EFA 14506 means Enterococcus faecalis (ATCC14506); EFA 29212 means Enterococcus faecalis (ATCC29212); LMO 49594 means Listeria monocytogenes (ATCC49594); PAE 27853 means Pseudomonas aeruginosa (ATCC27853); SMU 33402 means Streptococcus mutans (ATCC33402); SPN 6305 means Streptococcus pneumoniae (ATCC6305); SPY 8668 means Streptococcus pyogens (ATCC8668); STA 43300 means Staphylococcus aureus (ATCC43300); STA 25923 means Staphylococcus aureus (ATCC25923); STA 29213 means Staphylococcus aureus (ATCC29213); STA RMETH means methicilline resistant Staphylococcus aureus (MRSA) (a clinical isolate from the University of Antwerp). ATCC means American type tissue culture.

[2] = tested on: Streptococcus pneumoniae (ATCC6305); assay: Microtitre plate assay, IC90 determination, SPN 6305; settings: 90% inhibitory concentration for bacterial growth, 37° C., 24 hours, resazurin fluorescence
Outline: (§5)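 Compounds were diluted five-fold serially in 0.25% BSA water, then bacteria (~100 TCID50) in Mueller-Hinton broth were added. Plates stood 24 hours at 37° C; resazurin added 3 hours post-inoculation, plates re-incubated overnight. Fluorescence gave % inhibition and the IC90.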

[3] = tested on: Enterococcus faecalis (ATCC29212); assay: Microtitre plate assay, IC90 determination, EFA 29212; settings: Enterococcus faecalis, ATCC29212, 24 h, 90% inhibitory concentration for bacterial growth, 37° C., resazurin fluorescence, read-out: IC90 (μg/ml) EFA 29212
Description: as §1, §2, §3, §4

[4] = tested on: Streptococcus mutans (ATCC33402); assay: Microtitre plate assay, IC90 determination, SMU 33402; settings: 90% inhibitory concentration for bacterial growth, 37° C., 24 hours, resazurin fluorescence
Outline: as §5

[5] = tested on: Listeria monocytogenes (ATCC49594); assay: Microtitre plate assay, IC90 determination, LMO 49594; settings: 90% inhibitory concentration for bacterial growth, 37° C., resazurin fluorescence; for IC90 (μg/ml) LMO 49594: 24 hours
Outline: as §5

[6] = tested on: methicilline resistant Staphylococcus aureus (MRSA) (a clinical isolate from the University of Antwerp); assay: Microtitre plate assay, IC90 determination, STA RMETH; settings: 90% inhibitory concentration for bacterial growth, 37° C., resazurin fluorescence; for IC90: Staphylococcus aureus, MRSA, 24 h, read-out: IC90 (μg/ml) STA RMETH
Description: as §1, §2, §3, §4

[7] = tested on: Streptococcus pyogens (ATCC8668); assay: Microtitre plate assay, IC90 determination, SPY 8668; settings: 90% inhibitory concentration for bacterial growth, 37° C., resazurin fluorescence; for IC90 (μg/ml) SPY 8668: 24 hours
Outline: as §5

[8] = tested on: Bacillus subtilis (ATCC43639); assay: Microtitre plate assay, IC90 determination, BSU 43639; settings: 90% inhibitory concentration for bacterial growth, 37° C., resazurin fluorescence
Description: as §1, §2, §3, §4

[9] = tested on: Enterococcus faecalis (ATCC14506); assay: Microtitre plate assay, IC90 determination, EFA 14506; settings: 90% inhibitory concentration for bacterial growth, 37° C., 24 hours, resazurin fluorescence
Description: as §1, §2, §3, §4

[10] = tested on: Staphylococcus aureus (ATCC43300); assay: Microtitre plate assay, IC90 determination, STA 43300; settings: 90% inhibitory concentration for bacterial growth, 37° C., 24 hours, resazurin fluorescence
Description: as §1, §2, §3, §4

[11] = tested on: Staphylococcus aureus (ATCC25923); assay: Microtitre plate assay, IC90 determination, STA 25923; settings: 90% inhibitory concentration for bacterial growth, 37° C., resazurin fluorescence; for IC90: Staphylococcus aureus, ATCC25923, 24 h, read-out: IC90 (μg/ml) STA 25923
Description: as §1, §2, §3, §4

[12] = tested on: Escherichia coli (ATCC25922); assay: Microtitre plate assay, IC90 determination, ECO 25922; settings: 90% inhibitory concentration for bacterial growth, 37° C., 24 hours, resazurin fluorescence, read-out: IC90 (μg/ml) ECO 25922
Description: as §1, §2
(§6) Flat-bottom, sterile 96-well plastic microtiter plates were filled with 180 μl of sterile deionized water, supplemented with 0.25% BSA. Subsequently, stock solutions (7.8× final test concentration) of compounds were added in 45 μl volumes in column 2. Serial five-fold dilutions (45 μl in 180 μl) were made directly in the microtiter plates from column 2 to reach column 11. Untreated control samples with (column 1) and without (column 12) inoculum were included in each microtiter plate. […] At the end of incubation, one day after inoculation, the bacterial growth was quantitated fluorometrically. […] The fluorescence was read in a computer-controlled fluorometer (Cytofluor Biosearch) at an excitation wavelength of 530 nm and an emission wavelength of 590 nm. The % growth inhibition achieved by the compounds was calculated according to standard methods. […]

[13] = tested on: Staphylococcus aureus (ATCC29213); assay: Microtitre plate assay, IC90 determination, STA 29213; settings: 90% inhibitory concentration for bacterial growth, 37° C., 24 hours, resazurin fluorescence
Description: as §1, §2, §6

## COc1nc2ccc(Br)cc2cc1C(c1ccccc1)C(O)(CCN(C)C)c1cccc2ccccc12 (stereo not drawn) [Compound 14]
[1]; 24 hours
  IC90 (μg/ml) PAE 27853: 5.0 µg/mL (≈ 9 µM)
[2]
  IC90 (μg/ml) SPN 6305: 6.2 µg/mL (≈ 11.2 µM)
[3]
  IC90: 5 µg/mL (≈ 9 µM)
[4]
  IC90 (μg/ml) SMU 33402: 12.4 µg/mL (≈ 22.3 µM)
[5]
  IC90 (μg/ml) LMO 49594: 2.5 µg/mL (≈ 4.5 µM)
[6]
  IC90: 14 µg/mL (≈ 25.2 µM)
[7]
  IC90 (μg/ml) SPY 8668: 2.8 µg/mL (≈ 5.04 µM)
[8]; 24 hours
  IC90 (μg/ml) BSU 43639: 11.1 µg/mL (≈ 20 µM)
[9]
  IC90 (μg/ml) EFA 14506: 9.9 µg/mL (≈ 17.8 µM)
[10]
  IC90 (μg/ml) STA 43300: 5.6 µg/mL (≈ 10.1 µM)
[11]
  IC90: 9.9 µg/mL (≈ 17.8 µM)

## CSc1nc2ccc(Br)cc2cc1C(c1ccccc1)C(O)(CCN(C)C)c1ccccc1 (stereo not drawn) [Compound 32]
[1]; Pseudomonas aeruginosa, ATCC27853, 24 h, read-out: IC90 (μg/ml) PAE 27853
  IC90: 10.4 µg/mL (≈ 19.9 µM)
[2]
  IC90 (μg/ml) SPN 6305: 13.1 µg/mL (≈ 25.1 µM)
[3]
  IC90: 4.6 µg/mL (≈ 8.82 µM)
[4]
  IC90 (μg/ml) SMU 33402: 4.6 µg/mL (≈ 8.82 µM)
[5]; Listeria monocytogenes, ATCC49594, 24 h, read-out: IC90 (μg/ml) LMO 49594
  IC90: 4.6 µg/mL (≈ 8.82 µM)
[6]
  IC90: 13.1 µg/mL (≈ 25.1 µM)
[7]; Streptococcus, ATCC8668, 24 h, read-out: IC90 (μg/ml) SPY 8668
  IC90: 4.6 µg/mL (≈ 8.82 µM)
[12]
  IC90: 11.7 µg/mL (≈ 22.4 µM)
[10]
  IC90 (μg/ml) STA 43300: 13.1 µg/mL (≈ 25.1 µM)
[11]
  IC90: 9.3 µg/mL (≈ 17.8 µM)

## CCNCCC(O)(c1ccc(F)cc1F)C(c1ccccc1)c1cc2cc(Br)ccc2nc1OC (racemic) [Compound A]
[2]
  IC90 (μg/ml) SPN 6305: 1.1 µg/mL (≈ 2.03 µM)
[4]
  IC90 (μg/ml) SMU 33402: 10.8 µg/mL (≈ 19.9 µM)
[7]
  IC90 (μg/ml) SPY 8668: 10.8 µg/mL (≈ 19.9 µM)
[13]
  IC90 (μg/ml) STA 29213: 12.1 µg/mL (≈ 22.3 µM)
[11]; 24 hours
  IC90 (μg/ml) STA 25923: 10.8 µg/mL (≈ 19.9 µM)

## COc1nc2ccc(Br)cc2cc1C(c1ccccc1)C(O)(CCn1ccnc1)c1ccccc1 (stereo not drawn) [Compound 50]
[3]
  IC90: 10.5 µg/mL (≈ 19.9 µM)
[4]
  IC90 (μg/ml) SMU 33402: 21.0 µg/mL (≈ 39.7 µM)
[5]
  IC90 (μg/ml) LMO 49594: 23.6 µg/mL (≈ 44.7 µM)
[6]; 24 hours
  IC90 (μg/ml) STA RMETH: 10.5 µg/mL (≈ 19.9 µM)
[7]
  IC90 (μg/ml) SPY 8668: 26.5 µg/mL (≈ 50.1 µM)
[8]; Bacillus subtilis, ATCC43639, 24 h, read-out: IC90 (μg/ml) BSU 43639
  IC90: 10.5 µg/mL (≈ 19.9 µM)
[13]; read-out: IC90 (μg/ml) STA 29213
  IC90: 26.5 µg/mL (≈ 50.1 µM)
